From ChEMBL document CHEMBL4321797, “New Approaches to Cancer Therapy: Combining Fatty Acid Amide Hydrolase (FAAH) Inhibition with Peroxisome Proliferator-Activated Receptors (PPARs) Activation” (J Med Chem, 2019)

What was measured:
[1] = biological target: T1, Fatty-acid amide hydrolase 1 (Homo sapiens, UniProt O00519); experiment: Inhibition of FAAH (unknown origin)
T1 sequence (O00519 whole entry): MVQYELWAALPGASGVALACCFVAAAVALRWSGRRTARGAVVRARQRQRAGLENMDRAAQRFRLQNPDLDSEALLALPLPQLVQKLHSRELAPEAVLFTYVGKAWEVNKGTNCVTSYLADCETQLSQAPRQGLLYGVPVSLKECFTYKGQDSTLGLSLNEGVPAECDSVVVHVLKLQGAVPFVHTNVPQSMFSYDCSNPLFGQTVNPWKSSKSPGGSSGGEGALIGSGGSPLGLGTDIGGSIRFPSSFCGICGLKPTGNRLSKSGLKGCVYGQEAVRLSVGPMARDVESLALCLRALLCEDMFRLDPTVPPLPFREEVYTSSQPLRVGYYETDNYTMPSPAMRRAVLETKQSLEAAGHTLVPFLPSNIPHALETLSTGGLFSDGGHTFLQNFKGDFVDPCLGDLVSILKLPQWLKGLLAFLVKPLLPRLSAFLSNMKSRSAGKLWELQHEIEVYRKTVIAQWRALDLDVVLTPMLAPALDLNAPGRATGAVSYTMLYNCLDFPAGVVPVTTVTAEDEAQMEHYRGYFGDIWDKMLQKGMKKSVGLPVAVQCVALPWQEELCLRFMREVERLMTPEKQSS

[2] = biological target: T1, Fatty-acid amide hydrolase 1; experiment: Inhibition of recombinant human C-terminal FLAG-tagged FAAH expressed in HEK293T cells preincubated for 4 hrs followed by addition of FP-TAMRA probe and measured after 20 mins by SDS-PAGE based fluorescence assay; format: cell-based

Row | IC50 [2] [nM] | Structure (SMILES) | IC50 [1] [nM]
1 | – | CCCCC/C=C\C/C=C\C/C=C\C/C=C\CCCC(=O)NCCc1c[nH]c2ccc(O)cc12 | 5600
2 | 49 | CN(C(=O)n1cnc(-c2ccc[n+]([O-])c2)c1)C1CCCCC1 | –
